ChEMBL document CHEMBL5608259 (J Med Chem, 2024)
Each block holds one compound with its values, some of them ahead of it. Activity calls are given as the source filed them. The rule behind the calls is not given here.

What was measured:
[1] = biological target: T1, Histone-arginine methyltransferase CARM1 (Homo sapiens) (UniProt Q86X55); assay: Inhibition of PRMT4 in human MDA-MB-231 cells assessed as inhibition of BAF155 methylation at 10 uM by Western blot analysis; format: cell-based; details: time 1-48 hrs
T1 sequence (whole entry): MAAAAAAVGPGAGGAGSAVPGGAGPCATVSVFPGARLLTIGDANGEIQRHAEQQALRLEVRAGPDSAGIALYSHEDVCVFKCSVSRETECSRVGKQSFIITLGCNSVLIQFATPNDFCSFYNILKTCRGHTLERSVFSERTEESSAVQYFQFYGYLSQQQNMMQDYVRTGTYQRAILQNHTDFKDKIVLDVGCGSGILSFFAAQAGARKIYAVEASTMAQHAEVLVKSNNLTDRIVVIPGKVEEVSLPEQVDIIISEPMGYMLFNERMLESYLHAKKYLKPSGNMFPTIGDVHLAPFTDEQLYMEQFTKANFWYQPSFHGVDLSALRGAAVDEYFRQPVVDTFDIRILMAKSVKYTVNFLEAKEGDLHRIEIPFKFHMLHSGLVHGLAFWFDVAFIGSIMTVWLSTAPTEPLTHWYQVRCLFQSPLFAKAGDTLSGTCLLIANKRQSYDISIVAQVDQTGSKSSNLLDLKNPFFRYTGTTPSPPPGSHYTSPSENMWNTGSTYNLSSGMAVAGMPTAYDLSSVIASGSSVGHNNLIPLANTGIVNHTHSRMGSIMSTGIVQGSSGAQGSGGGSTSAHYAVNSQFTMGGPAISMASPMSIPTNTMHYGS

[2] = biological target: T1, Histone-arginine methyltransferase CARM1 (Homo sapiens); assay: Inhibition of PRMT4 in human MDA-MB-231 cells assessed as inhibition of PABP1 methylation at 10 uM by Western blot analysis; format: cell-based
[3] = biological target: T1, Histone-arginine methyltransferase CARM1 (Homo sapiens); assay: Inhibition of PRMT4 in human MDA-MB-231 cells assessed as decrease in BAF155 methylation level incubated for 24 to 48 hrs by Western blot analysis; format: cell-based; details: dose 0.01-20 µM, time 24-48 hrs
[4] = biological target: T1, Histone-arginine methyltransferase CARM1 (Homo sapiens); assay: Inhibition of PRMT4 in human MDA-MB-231 cells assessed as decrease in PABP1 methylation level incubated for 24 to 48 hrs by Western blot analysis; format: cell-based; details: dose 0.01-20 µM, time 24-48 hrs
[5] = biological target: T2, Histone-arginine methyltransferase CARM1 (Homo sapiens, UniProt Q86X55); assay: Inhibition of PRMT4 in human MDA-MB-231 cells assessed as decrease in BAF155 methylation level incubated for 24 hrs by Western blot analysis; format: cell-based
T2 sequence (Q86X55 whole entry): T1 sequence (whole entry)

[6] = biological target: T2, Histone-arginine methyltransferase CARM1; assay: Inhibition of PRMT4 in human MDA-MB-231 cells assessed as decrease in PABP1 methylation level incubated for 24 hrs by Western blot analysis; format: cell-based
[7] = biological target: T2, Histone-arginine methyltransferase CARM1; assay: Inhibition of PRMT4 in human MDA-MB-231 cells assessed as decrease in BAF155 methylation level incubated for 48 hrs by Western blot analysis; format: cell-based
[8] = biological target: T2, Histone-arginine methyltransferase CARM1; assay: Inhibition of PRMT4 in human MDA-MB-231 cells assessed as decrease in PABP1 methylation level incubated for 48 hrs by Western blot analysis; format: cell-based
[9] = biological target: T1, Histone-arginine methyltransferase CARM1 (Homo sapiens); assay: Potency index, ratio of IC50 for TP-064 to test compound IC50 for inhibition of PRMT4 in human MDA-MB-231 cells assessed as decrease in BAF155 methylation level incubated for 48 hrs by Western blot analysis; format: cell-based
[10] = biological target: T1, Histone-arginine methyltransferase CARM1 (Homo sapiens); assay: Potency index, ratio of IC50 for EZM2302 to test compound IC50 for inhibition of PRMT4 in human MDA-MB-231 cells assessed as decrease in BAF155 methylation level incubated for 48 hrs by Western blot analysis; format: cell-based
MDA-MB-231 = assay: Inhibition of colony formation in human MDA-MB-231 cells at 10 uM incubated for 2 weeks by crystal violet staining based analysis relative to control; format: functional; details: MDA-MB-231, 336 h
[11] = Prodrug release in human MDA-MB-231 cells assessed as (2R,3R,4S,5S)-2-(6-amino-9H-purin-9-yl)-5-(((2-((3-bromobenzyl)amino)ethyl)thio)methyl)tetrahydrofuran-3,4-diol formation at 4.5 uM measured after 30 mins by LC-MS analysis; format: ADME, cell-based; details: mda-mb-231, 0.5 h
[12] = Plasma protein binding in mouse at 5 uM measured after 5 hrs by LC-MS/MS analysis; format: ADME, cell-free; details: read-out: PPB (converted)
[13] = Drug recovery in mouse plasma at 5 uM measured after 5 hrs by LC-MS/MS analysis; format: ADME, cell-free; details: read-out: Drug recovery
4T1.2 [14] = assay: In vivo inhibition of PRMT4 in mouse 4T1.2 cells xenografted in Balb/c mouse assessed as decrease in BAF155 methylation level at 50 mg/kg, ip by immunoblot analysis; format: functional, organism-based
4T1.2 [15] = assay: Antitumor activity against mouse 4T1.2 cells xenografted in Balb/c mouse assessed as inhibition of tumor growth at 50 mg/kg, ip measured after 4 weeks by caliper method; format: functional, organism-based
[16] = Toxicity in Balb/c mouse assessed as effect on body weight at 50 mg/kg, ip measured after 4 weeks; format: organism-based; details: in vivo, 672 h
[17] = biological target: T3, Protein arginine N-methyltransferase 1 (Homo sapiens, UniProt Q99873); assay: Inhibition of PRMT1 (unknown origin) incubated for 1 hr in presence of 3H-SAM by topcount plate reader analysis
Target sequence in this assay (Q99873 whole entry): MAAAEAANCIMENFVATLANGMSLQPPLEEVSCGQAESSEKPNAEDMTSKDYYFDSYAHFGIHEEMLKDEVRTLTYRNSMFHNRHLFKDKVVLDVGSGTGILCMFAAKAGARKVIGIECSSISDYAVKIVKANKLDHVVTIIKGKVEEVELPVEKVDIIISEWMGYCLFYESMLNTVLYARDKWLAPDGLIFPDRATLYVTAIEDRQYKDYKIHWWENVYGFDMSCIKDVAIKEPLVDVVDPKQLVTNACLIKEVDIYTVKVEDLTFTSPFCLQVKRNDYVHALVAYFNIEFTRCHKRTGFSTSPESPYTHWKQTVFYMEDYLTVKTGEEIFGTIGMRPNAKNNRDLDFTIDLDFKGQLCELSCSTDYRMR

[18] = biological target: T4, Protein arginine N-methyltransferase 3 (Homo sapiens, UniProt O60678); assay: Inhibition of PRMT3 (unknown origin) incubated for 1 hr in presence of 3H-SAM by topcount plate reader analysis
T4 sequence (O60678 whole entry): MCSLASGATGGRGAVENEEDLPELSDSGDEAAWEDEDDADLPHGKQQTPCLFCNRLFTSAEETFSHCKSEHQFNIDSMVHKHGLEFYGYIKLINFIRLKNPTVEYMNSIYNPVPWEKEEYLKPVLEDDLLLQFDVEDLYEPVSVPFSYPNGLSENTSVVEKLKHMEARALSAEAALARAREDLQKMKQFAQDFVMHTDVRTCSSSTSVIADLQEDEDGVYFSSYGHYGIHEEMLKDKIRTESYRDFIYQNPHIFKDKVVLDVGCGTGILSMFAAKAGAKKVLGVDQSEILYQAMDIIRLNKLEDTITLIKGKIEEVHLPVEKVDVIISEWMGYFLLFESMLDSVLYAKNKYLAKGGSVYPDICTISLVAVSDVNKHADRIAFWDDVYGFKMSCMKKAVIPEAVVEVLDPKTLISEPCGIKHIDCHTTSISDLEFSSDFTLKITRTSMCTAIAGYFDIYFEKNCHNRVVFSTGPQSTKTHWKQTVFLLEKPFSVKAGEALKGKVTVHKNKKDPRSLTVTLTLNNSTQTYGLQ

[19] = biological target: T2, Histone-arginine methyltransferase CARM1; assay: Inhibition of PRMT4 (unknown origin) incubated for 1 hr in presence of 3H-SAM by topcount plate reader analysis
PRMT5/MEP50 complex [20] = biological target: T5, PRMT5/MEP50 complex (Homo sapiens, UniProt O14744); assay: Inhibition of PRMT5/MEP50 (unknown origin) incubated for 1 hr in presence of 3H-SAM by topcount plate reader analysis; format: protein-complex assay
T5 sequence (O14744 whole entry): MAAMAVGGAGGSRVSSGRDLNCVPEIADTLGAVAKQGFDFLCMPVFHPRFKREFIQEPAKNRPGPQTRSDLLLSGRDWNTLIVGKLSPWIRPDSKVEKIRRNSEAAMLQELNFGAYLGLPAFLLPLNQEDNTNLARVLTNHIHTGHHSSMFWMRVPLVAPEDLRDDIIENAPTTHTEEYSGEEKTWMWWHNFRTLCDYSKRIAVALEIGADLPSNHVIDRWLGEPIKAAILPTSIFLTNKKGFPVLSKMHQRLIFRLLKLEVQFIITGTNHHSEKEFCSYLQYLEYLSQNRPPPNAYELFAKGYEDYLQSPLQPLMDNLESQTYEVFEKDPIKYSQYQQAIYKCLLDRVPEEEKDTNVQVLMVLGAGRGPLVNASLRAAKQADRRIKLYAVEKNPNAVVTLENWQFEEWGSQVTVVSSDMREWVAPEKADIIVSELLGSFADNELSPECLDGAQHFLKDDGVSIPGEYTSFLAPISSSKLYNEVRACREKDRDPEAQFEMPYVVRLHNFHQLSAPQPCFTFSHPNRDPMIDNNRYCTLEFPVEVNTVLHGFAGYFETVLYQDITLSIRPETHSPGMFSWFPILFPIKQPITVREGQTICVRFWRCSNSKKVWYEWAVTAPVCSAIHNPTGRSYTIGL
T5 sequence (Q9BQA1 whole entry, further chain): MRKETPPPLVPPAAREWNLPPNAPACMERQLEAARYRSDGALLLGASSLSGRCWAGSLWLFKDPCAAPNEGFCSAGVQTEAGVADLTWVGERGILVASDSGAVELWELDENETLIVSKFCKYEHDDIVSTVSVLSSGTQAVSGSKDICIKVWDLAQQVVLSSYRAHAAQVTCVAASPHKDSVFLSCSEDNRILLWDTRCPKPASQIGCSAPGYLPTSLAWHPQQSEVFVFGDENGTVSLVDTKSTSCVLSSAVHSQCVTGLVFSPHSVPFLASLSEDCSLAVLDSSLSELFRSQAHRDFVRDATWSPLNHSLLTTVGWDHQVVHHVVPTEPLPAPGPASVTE

[21] = biological target: T6, Protein arginine N-methyltransferase 6 (Homo sapiens, UniProt Q96LA8); assay: Inhibition of PRMT6 (unknown origin) incubated for 1 hr in presence of 3H-SAM by topcount plate reader analysis
Target sequence in this assay (Q96LA8 whole entry): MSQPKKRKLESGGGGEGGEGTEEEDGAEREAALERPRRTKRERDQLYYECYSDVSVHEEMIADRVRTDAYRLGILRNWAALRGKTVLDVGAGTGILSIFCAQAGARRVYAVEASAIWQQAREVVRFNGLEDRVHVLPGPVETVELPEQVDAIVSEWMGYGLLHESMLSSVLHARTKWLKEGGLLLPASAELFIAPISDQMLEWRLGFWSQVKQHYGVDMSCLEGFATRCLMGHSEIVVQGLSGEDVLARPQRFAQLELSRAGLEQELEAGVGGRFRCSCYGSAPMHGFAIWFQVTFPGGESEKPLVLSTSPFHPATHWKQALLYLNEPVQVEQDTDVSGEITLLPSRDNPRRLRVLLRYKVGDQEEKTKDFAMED

[22] = biological target: T7, Protein arginine N-methyltransferase 7 (Homo sapiens, UniProt Q9NVM4); assay: Inhibition of PRMT7 (unknown origin) incubated for 1 hr in presence of 3H-SAM by topcount plate reader analysis
T7 sequence (Q9NVM4 whole entry): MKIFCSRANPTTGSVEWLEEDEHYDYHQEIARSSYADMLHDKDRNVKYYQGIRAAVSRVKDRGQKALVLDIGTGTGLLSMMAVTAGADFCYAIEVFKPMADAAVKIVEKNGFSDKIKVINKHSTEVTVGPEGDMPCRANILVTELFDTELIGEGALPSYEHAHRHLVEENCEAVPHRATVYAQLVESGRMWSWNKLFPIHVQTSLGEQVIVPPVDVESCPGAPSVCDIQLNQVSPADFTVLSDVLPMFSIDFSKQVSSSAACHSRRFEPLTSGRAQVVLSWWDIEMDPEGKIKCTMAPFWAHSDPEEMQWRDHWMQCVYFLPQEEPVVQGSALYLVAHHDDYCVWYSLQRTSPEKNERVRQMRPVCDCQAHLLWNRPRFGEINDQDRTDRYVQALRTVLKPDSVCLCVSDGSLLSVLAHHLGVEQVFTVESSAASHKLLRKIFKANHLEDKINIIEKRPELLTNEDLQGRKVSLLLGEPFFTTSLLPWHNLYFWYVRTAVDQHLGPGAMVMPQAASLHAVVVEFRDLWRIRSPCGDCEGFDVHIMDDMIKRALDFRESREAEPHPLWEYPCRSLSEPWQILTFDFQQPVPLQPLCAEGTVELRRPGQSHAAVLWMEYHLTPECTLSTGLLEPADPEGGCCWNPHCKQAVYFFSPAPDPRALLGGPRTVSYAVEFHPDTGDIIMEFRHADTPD

[23] = biological target: T8, Protein arginine N-methyltransferase 8 (Homo sapiens, UniProt Q9NR22); assay: Inhibition of PRMT8 (unknown origin) incubated for 1 hr in presence of 3H-SAM by topcount plate reader analysis
Target sequence in this assay (Q9NR22 whole entry): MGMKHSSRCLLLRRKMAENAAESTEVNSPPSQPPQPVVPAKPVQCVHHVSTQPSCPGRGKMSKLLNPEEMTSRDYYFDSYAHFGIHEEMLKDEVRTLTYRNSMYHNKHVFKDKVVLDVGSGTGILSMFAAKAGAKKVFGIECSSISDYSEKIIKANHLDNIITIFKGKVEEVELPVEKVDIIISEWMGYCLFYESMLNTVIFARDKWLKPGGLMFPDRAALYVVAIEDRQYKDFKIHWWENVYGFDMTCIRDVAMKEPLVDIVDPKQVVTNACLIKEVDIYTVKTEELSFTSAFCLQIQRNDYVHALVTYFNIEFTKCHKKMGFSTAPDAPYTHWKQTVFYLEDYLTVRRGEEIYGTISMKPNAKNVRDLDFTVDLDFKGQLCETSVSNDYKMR

[24] = biological target: T6, Protein arginine N-methyltransferase 6; assay: Inhibition of PRMT6 (unknown origin)
Target sequence in this assay (Q96LA8 whole entry): as the sequence (Q96LA8 whole entry) above

[25] = biological target: T4, Protein arginine N-methyltransferase 3; assay: Inhibition of PRMT3 (unknown origin)
[26] = biological target: T2, Histone-arginine methyltransferase CARM1; assay: Inhibition of PRMT4 (unknown origin)
[27] = biological target: Protein arginine N-methyltransferase 5 (Homo sapiens, UniProt O14744); assay: Inhibition of PRMT5 (unknown origin)
Sequence of Protein arginine N-methyltransferase 5 (O14744 whole entry): as the sequence (O14744 whole entry) above

[28] = biological target: T7, Protein arginine N-methyltransferase 7; assay: Inhibition of PRMT7 (unknown origin)
[29] = biological target: T8, Protein arginine N-methyltransferase 8; assay: Inhibition of PRMT8 (unknown origin)
Target sequence in this assay (Q9NR22 whole entry): as the sequence (Q9NR22 whole entry) above

[30] = biological target: T3, Protein arginine N-methyltransferase 1; assay: Inhibition of human PRMT1 using H4-21peptide as substrate at 10 uM incubated for 10 mins by fluorescence based analysis relative to control
Target sequence in this assay (Q99873 whole entry, looked up): as the sequence (Q99873 whole entry) above

[31] = biological target: T6, Protein arginine N-methyltransferase 6; assay: Inhibition of human PRMT6 using GST-GAR as substrate and SAM as cofactor at 10 uM by radiometric HotSpot assay relative to control
Target sequence in this assay (Q96LA8 whole entry, looked up): as the sequence (Q96LA8 whole entry) above

[32] = biological target: T8, Protein arginine N-methyltransferase 8; assay: Inhibition of human PRMT8 using Histone H4 as substrate and SAM as cofactor at 10 uM by radiometric HotSpot assay relative to control
Target sequence in this assay (Q9NR22 2-394 limits assumed): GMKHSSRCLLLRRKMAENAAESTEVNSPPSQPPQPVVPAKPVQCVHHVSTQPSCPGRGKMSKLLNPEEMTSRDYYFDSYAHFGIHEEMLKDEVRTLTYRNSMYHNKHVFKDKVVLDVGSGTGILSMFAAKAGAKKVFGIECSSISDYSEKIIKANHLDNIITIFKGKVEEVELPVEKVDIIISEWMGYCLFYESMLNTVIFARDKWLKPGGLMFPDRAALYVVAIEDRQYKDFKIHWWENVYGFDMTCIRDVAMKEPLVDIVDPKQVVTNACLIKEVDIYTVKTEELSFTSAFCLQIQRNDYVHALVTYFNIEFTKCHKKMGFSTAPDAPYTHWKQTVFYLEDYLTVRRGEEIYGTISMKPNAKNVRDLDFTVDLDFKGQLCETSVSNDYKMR

[33] = biological target: T3, Protein arginine N-methyltransferase 1; assay: Inhibition of human PRMT1 using Histone H4 as substrate and SAM as cofactor by radiometric HotSpot assay
Target sequence in this assay (Q99873 whole entry): as the sequence (Q99873 whole entry) above

PRMT5/MEP50 complex [34] = biological target: T5, PRMT5/MEP50 complex; assay: Inhibition of human PRMT5/MEP50 using Histone H2 as substrate and SAM as cofactor by radiometric HotSpot assay; format: protein-complex assay
[35] = biological target: T4, Protein arginine N-methyltransferase 3; assay: Inhibition of human PRMT3 using Histone H3 as substrate and SAM as cofactor by radiometric HotSpot assay
[36] = biological target: T7, Protein arginine N-methyltransferase 7; assay: Inhibition of human PRMT7 using GST-GAR as substrate and SAM as cofactor by radiometric HotSpot assay
[37] = biological target: T8, Protein arginine N-methyltransferase 8; assay: Inhibition of human PRMT8 using Histone H4 as substrate and SAM as cofactor by radiometric HotSpot assay
Target sequence in this assay (Q9NR22 whole entry): as the sequence (Q9NR22 whole entry) above

[38] = biological target: PRMT5/MEP50 complex (Homo sapiens) (UniProt O14744+Q9BQA1); assay: Inhibition of human PRMT5/MEP50 using Histone H2 as substrate and SAM as cofactor at 10 uM by radiometric HotSpot assay relative to control; format: protein-complex assay
[39] = Permeability of the compound by PAMPA method; format: ADME; details: read-out: permeability
[40] = biological target: T3, Protein arginine N-methyltransferase 1; assay: Inhibition of PRMT1 (unknown origin)
Target sequence in this assay (Q99873 whole entry): as the sequence (Q99873 whole entry) above

SMILES: Nc1ncnc2c1ncn2[C@@H]1O[C@H](CSCCCCNCc2cccc(-c3ccc(Cl)cc3)c2)[C@@H](O)[C@H]1O
IC50 [17]: 1200 nM | IC50 [18]: 1600 nM | IC50 [19]: 140 nM | IC50 (PRMT5/MEP50 complex [20]): 150 nM | IC50 [21]: 1500 nM | IC50 [22]: < 2.5 nM | IC50 [23]: 7000 nM

SMILES: N=C(NCCSC[C@H]1O[C@@H](n2cnc3c(N)ncnc32)[C@H](O)[C@@H]1O)Nc1ccccc1Br
IC50 [24]: 30.5 nM | IC50 [25]: 321 nM | IC50 [26]: 5.05 nM | IC50 [27]: 18.2 nM | IC50 [28]: 555 nM | IC50 [29]: 32.1 nM

SMILES: N=C(NCCSC[C@H]1O[C@@H](n2cnc3c(N)ncnc32)[C@H](O)[C@@H]1O)Nc1ccccc1
inhibition [30]: > 50% | inhibition [31]: > 90% | inhibition [32]: > 95% | IC50 [33]: > 10000 nM | IC50 (PRMT5/MEP50 complex [34]): 351 nM | IC50 [35]: 321 nM | IC50 [24]: > 10000 nM | IC50 [36]: 2400 nM | IC50 [37]: > 10000 nM

More lines, main results first:

inhibition [1]: Dose-Dependent Effect | inhibition [2]: Dose-Dependent Effect | inhibition [3]: Dose-Dependent Effect | inhibition [4]: Dose-Dependent Effect | IC50 [5]: 343 nM | IC50 [6]: 30.6 nM | IC50 [7]: 42.3 nM | IC50 [8]: 23.1 nM | Ratio IC50 [9]: 2 | Ratio IC50 [10]: 2 | Drug metabolism [11]: Metabolite_Detected | fraction unbound at 5 h, 5 µM [12]: 0.004 | remaining at 5 h, 5 µM [13]: 90.8%
SMILES: CC1=C(C)C(=O)C(C(C)(C)CC(=O)N(CCSC[C@H]2O[C@@H](n3cnc4c(N)ncnc43)[C@H](O)[C@@H]2O)Cc2cccc(Br)c2)=C(C)C1=O
inhibition at 10 µM (MDA-MB-231): 100% | inhibition (4T1.2 [14]): Active | inhibition (4T1.2 [15]): Active | Activity [16]: Non-Toxic

inhibition [31]: 50% | inhibition [32]: > 50% | inhibition [38]: 75% | Papp [39]: 0.3 ×10⁻⁶ cm/s
SMILES: Nc1ncnc2c1ncn2[C@@H]1O[C@H](CSCCNCc2cccc(Br)c2)[C@@H](O)[C@H]1O

IC50 [24]: > 10000 nM | IC50 [40]: > 10000 nM | IC50 [25]: > 10000 nM | IC50 [26]: > 10000 nM | IC50 [28]: > 10000 nM | IC50 [29]: > 10000 nM
SMILES: Nc1nc2cc(CC[C@H]3C[C@@H](n4ccc5c(N)ncnc54)[C@H](O)[C@@H]3O)ccc2cc1Br [ONAMETOSTAT]
